Results on eleven compounds are retold here after patent US20240025906A1 (NEURON23, INC., priority 2022, published 2024).

The subject of assay [1] is JAK1/TYK2 pSTAT5 (Tyr694/699) in THP-1 cell line. Briefly: IFNa-stimulated JAK1/TYK2 pSTAT5 (Tyr694/699) inhibition cellular assay, AlphaLISA. In kind it is cell-based. As to conditions: Homo sapiens; THP-1 cells, IFNa-stimulated, AlphaLISA (Assay B); read-out: Cellular_THP1_IFNa-pSTATS_TYK2. The method in brief:
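The readout is AlphaLISA signal at 615 nm for phospho-STAT5 in THP-1 lysates after IFNa stimulation (added at 100 ng/mL, 30 min, 37 °C). Cells had compound for 1 h beforehand across eight 6-fold concentrations up to 10000 nM final. IC50s are 4PL fits with bottom and Hill slope constrained.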

Another assay has as its target T1, TYK2 JH2 (Homo sapiens, UniProt P29597).
T1 construct: purchased DiscoverX (KINOMEscan KdELECT service); host or cells: E. coli BL21-derived (T7 phage display) or HEK-293
Briefly: TYK2 JH2 binding assay (KINOMEscan KdELECT competitive binding). As to conditions: TYK2 JH2 domain, DiscoverX KINOMEscan KdELECT (Assay A); read-out: Biochemical TYK2_DiscoverX_JH2_BND_Kd. Put shortly:
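Test compounds were titrated in 11 three-fold steps against JH2 fragment captured on ligand-loaded magnetic beads, with 1 h incubation at room temperature and DMSO at 0.9%. Eluted kinase was quantified by qPCR, and Kd was fitted from the dose series.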

SMILES strings stand for the structures. Some results are limits rather than exact numbers.

T1 sequence (P29597 589-875 limits assumed): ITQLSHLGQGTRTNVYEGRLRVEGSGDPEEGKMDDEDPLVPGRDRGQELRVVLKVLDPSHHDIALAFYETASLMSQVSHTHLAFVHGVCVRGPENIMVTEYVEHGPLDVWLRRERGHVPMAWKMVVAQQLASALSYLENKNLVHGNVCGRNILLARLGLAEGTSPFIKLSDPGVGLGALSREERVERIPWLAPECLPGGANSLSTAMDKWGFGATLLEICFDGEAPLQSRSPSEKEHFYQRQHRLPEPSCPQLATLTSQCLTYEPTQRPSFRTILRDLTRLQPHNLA

Consider `CNc1ncc(-c2nc3cc(OC)ccc3o2)c2cc(Nc3ccc(C(C)(C)O)cn3)ncc12` [Example 375, 2-(6-((5-(5-methoxybenzo[d]oxazol-2-y1)-8-(methylamino)-2,7-naphthyridin-3-yl)amino)pyridin-3-yl)propan-2-ol], for which the IC50 in assay [1] was ≤ 500 nM. The Kd on TYK2 JH2 was ≤ 100 nM.
The like results for `CNc1ncc(-c2nc3cc(OC)ccc3o2)c2cc(Nc3cc(C)n(C)n3)ncc12` [Example 376, N^6-(1,5-dimethyl-1H-pyrazol-3-yl)-4-(5-methoxybenzo[d]oxazol-2-yl)-N^1-methyl-2,7-naphthyridine-1,6-diamine] were, in that order, ≤ 500 nM and ≤ 100 nM.
Regarding `CNc1ncc(-c2nc3cc(OC)ccc3o2)c2cc(Nc3cc(C)nc(C)n3)ncc12` [Example 377, N^6-(2,6-dimethylpyrimidin-4-yl)-4-(5-methoxybenzo[d]oxazol-2-yl)-N^1-methyl-2,7-naphthyridine-1,6-diamine], in assay [1], the IC50 is ≤ 500 nM. Further, on TYK2 JH2, the Kd was ≤ 100 nM.
The like results for `CNc1ncc(-c2nc3cc(OC)ccc3o2)c2cc(Nc3ccc(OC)cn3)ncc12` [Example 378, 4-(5-methoxybenzo[d]oxazol-2-yl)-N^6-(5-methoxypyridin-2-yl)-N^1-methyl-2,7-naphthyridine-1,6-diamine] were, in that order, ≤ 500 nM and ≤ 100 nM.
For `CNc1ncc(-c2nc3cc(OC)ccc3o2)c2cc(Nc3cccc(OC)n3)ncc12` [Example 379, 4-(5-methoxybenzo[d]oxazol-2-yl)-N^6-(6-methoxypyridin-2-yl)-N^1.methyl-2,7-naphthyridine-1,6-diamine], in assay [1], the IC50 was ≤ 500 nM. In addition, on TYK2 JH2, the Kd is ≤ 100 nM.
For `CNc1ncc(-c2nc3cc(OC)ccc3o2)c2cc(Nc3ccc(N4CCOCC4)cn3)ncc12` [Example 380, 4-(5-methoxybenzo[d]oxazol-2-yl)-N^1-methyl-N^6-(5-morpholinopyridin-2-yl)-2,7-naphthyridine-1,6-diamine] the same measures were ≤ 500 nM and ≤ 100 nM.
Consider `CNc1ncc(-c2nc3cc(OC)ccc3o2)c2cc(NC(=O)C3(F)CC3)ncc12` [Example 381, 1-fluoro-N-(5-(5-methoxybenzo[d]oxazol-2-yl)-8-(methylamino)-2,7-naphthyridin-3-yl)cyclopropane-1-carboxamide], for which, in assay [1], the IC50 is > 500 nM. Besides, the Kd at TYK2 JH2 is ≤ 100 nM.
For `CNc1ncc(-c2nc3cc(OC)ccc3o2)c2cc(NC(=O)[C@H]3C[C@H]3C)ncc12` [Example 384, (1S,2R)-N-(5-(5-methoxybenzo[d]oxazol-2-yl)-8-(methylamino)-2,7-naphthyridin-3-y1)-2-methylcyclopropane-1-carboxamide] the same measures were ≤ 500 nM and ≤ 100 nM.
The like results for `CNc1ncc(-c2nc3cc(OC)ccc3o2)c2cc(NC(=O)CC(F)(F)F)ncc12` [Example 386, 3,3,3-trifluoro-N-(5-(5-methoxybenzo[d]oxazol-2-yl)-8-(methylamino)-2,7-naphthyridin-3-yl)propanamide] were, in that order, ≤ 500 nM and ≤ 100 nM.
The like results for `CNc1ncc(-c2nc3cc(OC)ccc3o2)c2cc(NC(=O)[C@H]3C[C@H]3F)ncc12` [Example 387, (1R,2R)-2-fluoro-N-(5-(5-methoxybenzo[d]oxazol-2-y1)-8-(methylamino)-2,7-naphthyridin-3-yl)cyclopropane-1-carboxamide] were, in that order, ≤ 500 nM and ≤ 100 nM.
As for `CNc1ncc(-c2nc3cc(OC)ccc3o2)c2cc(NC(=O)[C@@H]3C[C@@H]3F)ncc12` [Example 388, (1S,2S)-2-fluoro-N-(5-(5-methoxybenzo[d]oxazol-2-y1)-8-(methylamino)-2,7-naphthyridin-3-yl)cyclopropane-1-carboxamide], the IC50 in assay [1] was ≤ 500 nM. Besides, the Kd at TYK2 JH2 is ≤ 100 nM.
